What is called MIC is the lowest concentration that inhibits growth of the organism.

Converted amounts (≈) assume the structure as drawn. Where two headings read alike, the source gives them in different places.

Experiment [1] has as its system E. coli K-12. Kind of experiment: Broth microdilution MIC (CLSI), confirmed by time-kill kinetics. Type of experiment: cell-based, Escherichia coli. The settings on record: E. coli K-12, gold standard overnight methods. As for the experimental part:
(§1) Escherichia coli (E. coli) strain K-12 was used as a model bacterial strain in all experiments with ampicillin, gentamicin, and ceftriaxone. Multi-drug resistant (MDR) E. coli strain PS00278A (porcine isolate) was tested with ampicillin and gentamicin to contrast with the susceptible model bacterial strain. Staphylococcus aureus (S. aureus) strain PS00975A (human clinical isolate) was used with ampicillin to evaluate the methods' performance on a Gram-positive microorganism. Cultures were stored as a frozen stocks at −80° C. and resuscitated every 14 days to maintain a fresh inoculum. The culture was resuscitated by streaking onto Muller Hinton Agar (MHA) and was then incubated at 37° C. 20+/−2 h. A single colony from the MHA agar was re-streaked on a fresh MHA plate and incubated at 37° C. 20+/−2 h. A single colony from the MHA sub-streak plate was inoculated into 10 mL Muller Hinton Broth (MHB) and incubated at 37° C., shaking at 210 rpm, for 20+/−2 h. The overnight culture was diluted in MHB based on the OD600 to obtain 5×10^5 CFU/mL using a BioPhotometer D30 (Eppendorf, Hauppauge, N.Y.). An OD600 of 1 was considered to be equal to 8×10^8 CFU/mL, based on an E. coli OD600-CFU/ml standard curve.
(§2) The 5×10^5 CFU/mL culture was used for broth microdilution and speckle imaging. […] The CLSI guideline M100 ED30:2020 was used to define clinical resistance based on determined MICs. […] MIC was determined by visually inspecting wells for turbidity resulting from culture growth.
Broth macrodilution was used to determine the time-kill kinetics of all strains, Culture in concentration of 5×10^5 CFU/mL was first grown for 1 hour at 37° C. in a shaking condition (210 rpm) and was then exposed to antibiotic concentrations of 0×MIC (control), 1×MIC, and 2×MIC that were previously determined via broth microdilution. Viable cells were quantified at times 0, 1, 2, 3, 5, 8, 16, and 24 hours by spiral plating (easySpiral, Interscience) 10-fold dilutions onto MHB agar. Inoculated plates were incubated at 37° C. for 16-20 hours and counted to determine the CFU/mL at each time point. […]

Experiment [2] deals with E. coli K-12. Kind of experiment: DyRAST: ANN pixel-level prediction on DLSI data with voting. It counts as cell-based, Escherichia coli. Conditions: 2×MIC. As for the experimental part: For DLSI-based AST, the culture grown as outlined above was adjusted to 5×10^5 CFU/mL and was further incubated at 37° C., 210 rpm for 1 h to reach the logarithmic growth phase before an antibiotic was added to the culture in concentrations equal to 0×MIC (control), 0.5×MIC, 1×MIC, and 2×MIC. Three mL of each culture were collected at each time point, ti (i=0, 1, . . . , 4) at 0, 30 min, 60 min, 90 min, and 120 min, respectively, and transferred into the cuvette used for DLSI in the imaging system described above. At each ti, a dynamic speckle patterns series (16 bits, 1000×2000 pixels, 50 frames per second) was collected. The exposure time for each frame was 1 msec (millisecond) and the full capture period was 10 sec at each time point, ti. All experiments were conducted in independent triplicates.
The raw images (1000×2000) were first resized (100×200) using the nearest neighbor method to reduce the computational cost. The camera has a pixel size of 6.5 μm, corresponding to a 6.5 mm×13 mm detection area. Fourier Transform (FT) was performed along the time axis of the measured data cube. […]
The experimental replicates are pooled, processed together, and then divided randomly into training, validation, and test groups. […] Binary classification for the “Inhibited” and “Non-Inhibited” bacteria groups was determined with the input from frequency domain for each pixel. […]

In experiment [3] the test system is E. coli K-12. Kind of experiment: Average intensity of raw dynamic laser speckle images. It counts as cell-based. The settings on record: Escherichia coli, K12; E. coli K-12, simple intensity measurement (false positive vs overnight MIC); read-out: MIC determined from speckle intensity data. As for the experimental part:
A helium-neon laser (wavelength: 632.8 nm, power: 0.8 mW, HNLS008L, Thorlabs Inc., USA) was used as an illumination source. The laser beam was slightly expanded by using a concave lens (focal length=−25.0 mm) before illuminating a cuvette (Fisherbrand, CAS#14-955-129) containing 3 mL of bacterial suspension. The resultant speckle pattern was captured by a CMOS camera (Zyla, ANDOR), interfaced to a computer. Note that other methods, such as an inverse telescope beam expander, can also be used to increase the incident laser beam size. Our choice of a diverging lens is due to its simplicity and compactness as well as the fact that an explicit physical model is not needed for the machine learning based analysis, which relaxes the requirement of a plane-wave incident beam as commonly used in dynamic light scattering. […]
The OD data and the average intensity values obtained from raw speckle patterns (examples shown in FIG. 2) are shown in FIG. 3A-B and FIG. 3C-D for ampicillin and gentamicin, respectively. […] While the OD values for different antibiotic concentrations are below the detection limit of the OD reading even after 120 min, the average speckle intensity values are distinguishable in 90 min. […]

Experiment [4] relates to MDR E. coli PS00278A. The settings on record: CLSI guideline M100 ED30:2020, tested on MDR E. coli; cited from earlier work.
In experiment [5] the test system is MDR E. coli PS00278A. Nature of the experiment: Broth microdilution MIC (CLSI). It counts as cell-based, Escherichia coli. As for the experimental part: as §1, with “An OD600 of 1 was considered to be equal to 8×10^8 CFU/mL, based on an E. coli OD600-CFU/ml standard curve.” left out
as §2
Background: In broth dilution the organism is exposed to a series of concentrations in liquid medium.

The mark [6] stands for this setting: Escherichia coli, K12, read-out: MIC.

Take `CO/N=C(\C(=O)N[C@@H]1C(=O)N2C(C(=O)O)=C(CSc3nc(=O)c(=O)[nH]n3C)CS[C@H]12)c1csc(N)n1` [ceftriaxone]: in the experiment with E. coli K-12 [1] (setting [6]), the minimal inhibitory concentration (MIC) worked out at 0.0625 µg/mL (≈ 0.113 µM).
Regarding `CC1(C)S[C@@H]2[C@H](NC(=O)[C@H](N)c3ccccc3)C(=O)N2[C@H]1C(=O)O` [ampicillin, Ampicillin], the “predicted percentage of classification as "Inhibited"” value with E. coli K-12 [2] (30 min) is given as around 50%. For the same compound, the “predicted percentage of classification as "Inhibited" (votes)” value in the experiment with E. coli K-12 [2] (60 min) is reported as “more than 80%”. The minimum inhibitory concentration (MIC) in the experiment on E. coli K-12 [3] was 2 µg/mL (≈ 5.72 µM); in the experiment with MDR E. coli PS00278A [5] (Escherichia coli, read-out: MIC), 2000 µg/mL (≈ 5720 µM); with E. coli K-12 [1] (setting [6]), 4 µg/mL (≈ 11.4 µM). For the same compound, the “intermediate breakpoint concentration (clinical resistance diagnosis breakpoint)” value in the experiment with MDR E. coli PS00278A [4] was 16 µg/mL.
Consider gentamicin, for which the “intermediate breakpoint concentration (clinical resistance diagnosis breakpoint)” value in the experiment on MDR E. coli PS00278A [4] is 8 µg/mL. Also, the MIC against MDR E. coli PS00278A [5] amounted to 128 µg/mL; with E. coli K-12 [1], 2 µg/mL.

(Values after patent publication US20230067015A1, “SYSTEMS AND METHODS FOR ANTIBACTERIAL SUSCEPTIBILITY TESTING USING DYNAMIC LASER SPECKLE IMAGING” (The Penn State Research Foundation, priority 2020, published 2023).)
